{"source": "patent US12624017B2", "about": "“Salt form of isoquinolinone type compound as rock inhibitor and preparation method therefor” (GUANGZHOU OCUSUN OPHTHALMIC BIOTECHNOLOGY CO., LTD., priority 2020, dated 2026)", "tested_on": "New Zealand rabbits with normal intraocular pressure", "assay": "Intraocular pressure reduction, normal intraocular pressure, eye drops in both eyes for 14 days (Operation I)", "assay_type": "in vivo, New Zealand white rabbits", "details": "for Change in intraocular pressure: vs negative control", "description": "An intraocular pressure reduction effect and potential ocular toxicity of the compound of formula (I) were inspected with rabbits with normal intraocular pressure by repeated administration of eye drops for 14 days.\nMale New Zealand white rabbits, aged 97 to 127 days, weighted 2.6-3.5 kg, purchased from Pizhou Oriental Breeding Co., Ltd.\nThe Male New Zealand white rabbits were randomly divided into 7 groups according to body weights, 6 rabbits/group. The animals in Groups 1 to 7 were administrated dropwise with a solvent/control/test article in both eyes in an administration volume of 50 μL/eye, once a day for 14 consecutive days, and the day of first administration was recorded as Day 1. The intraocular pressures of the animals were measured before administration, as well as at 1, 2, 4, 6, 8 and 10 h after administration, respectively. On Days 2 to 14, the intraocular pressures of animals in the K-115 administration group were measured at 1 h after daily administration; and intraocular pressures of the animals in the remaining groups were measured at 4 h after daily administration.", "key": {"[1]": {"details": "4 mg/mL once a day, Day 2, 1 h after daily administration"}, "[2]": {"details": "4 mg/mL once a day, Day 3, 1 h after daily administration"}, "[3]": {"details": "4 mg/mL once a day, Day 4, 1 h after daily administration"}, "[4]": {"details": "4 mg/mL once a day, Day 5, 1 h after daily administration"}, "[5]": {"details": "4 mg/mL once a day, Day 6, 1 h after daily administration"}, "[6]": {"details": "4 mg/mL once a day, Day 7, 1 h after daily administration"}, "[7]": {"details": "4 mg/mL once a day, Day 8, 1 h after daily administration"}, "[8]": {"details": "4 mg/mL once a day, Day 9, 1 h after daily administration"}, "[9]": {"details": "4 mg/mL once a day, Day 10, 1 h after daily administration"}, "[10]": {"details": "4 mg/mL once a day, Day 11, 1 h after daily administration"}, "[11]": {"details": "4 mg/mL once a day, Day 12, 1 h after daily administration"}, "[12]": {"details": "4 mg/mL once a day, Day 13, 1 h after daily administration"}, "[13]": {"details": "4 mg/mL once a day, Day 14, 1 h after daily administration"}, "[14]": {"details": "4 mg/mL, Day 1, 1 h after administration"}, "[15]": {"details": "4 mg/mL, Day 1, 2 h after administration"}, "[16]": {"details": "4 mg/mL, Day 1, 4 h after administration"}, "[17]": {"details": "4 mg/mL, Day 1, 6 h after administration"}, "[18]": {"details": "4 mg/mL, Day 1, 8 h after administration"}, "[19]": {"details": "4 mg/mL, Day 1, 10 h after administration"}, "[20]": {"details": "4 mg/mL, Day 1, before administration"}}, "data": [{"smiles": "C[C@H]1CNCCCN1S(=O)(=O)c1cccc2cncc(F)c12", "note": "[K-115, reference compound]", "values": [{"measurement": "Average intraocular pressure in both eyes", "setting": "[1]", "result": 6.83, "unit": "mmHg"}, {"measurement": "Change in intraocular pressure", "setting": "[1]", "result": 4.25, "unit": "mmHg"}, {"measurement": "Average intraocular pressure in both eyes", "setting": "[2]", "result": 6.81, "unit": "mmHg"}, {"measurement": "Change in intraocular pressure", "setting": "[2]", "result": 3.58, "unit": "mmHg"}, {"measurement": "Average intraocular pressure in both eyes", "setting": "[3]", "result": 6.92, "unit": "mmHg"}, {"measurement": "Change in intraocular pressure", "setting": "[3]", "result": 3.69, "unit": "mmHg"}, {"measurement": "Average intraocular pressure in both eyes", "setting": "[4]", "result": 6.67, "unit": "mmHg"}, {"measurement": "Change in intraocular pressure", "setting": "[4]", "result": 4.3, "unit": "mmHg"}, {"measurement": "Average intraocular pressure in both eyes", "setting": "[5]", "result": 6.75, "unit": "mmHg"}, {"measurement": "Change in intraocular pressure", "setting": "[5]", "result": 2.56, "unit": "mmHg"}, {"measurement": "Average intraocular pressure in both eyes", "setting": "[6]", "result": 7.39, "unit": "mmHg"}, {"measurement": "Change in intraocular pressure", "setting": "[6]", "result": 2.67, "unit": "mmHg"}, {"measurement": "Average intraocular pressure in both eyes", "setting": "[7]", "result": 7.53, "unit": "mmHg"}, {"measurement": "Change in intraocular pressure", "setting": "[7]", "result": 3.78, "unit": "mmHg"}, {"measurement": "Average intraocular pressure in both eyes", "setting": "[8]", "result": 7.78, "unit": "mmHg"}, {"measurement": "Change in intraocular pressure", "setting": "[8]", "result": 1.66, "unit": "mmHg"}, {"measurement": "Average intraocular pressure in both eyes", "setting": "[9]", "result": 7.94, "unit": "mmHg"}, {"measurement": "Change in intraocular pressure", "setting": "[9]", "result": 1.81, "unit": "mmHg"}, {"measurement": "Average intraocular pressure in both eyes", "setting": "[10]", "result": 7.94, "unit": "mmHg"}, {"measurement": "Change in intraocular pressure", "setting": "[10]", "result": 1.75, "unit": "mmHg"}, {"measurement": "Average intraocular pressure in both eyes", "setting": "[11]", "result": 7.89, "unit": "mmHg"}, {"measurement": "Change in intraocular pressure", "setting": "[11]", "result": 1.64, "unit": "mmHg"}, {"measurement": "Average intraocular pressure in both eyes", "setting": "[12]", "result": 8.25, "unit": "mmHg"}, {"measurement": "Change in intraocular pressure", "setting": "[12]", "result": 3.14, "unit": "mmHg"}, {"measurement": "Average intraocular pressure in both eyes", "setting": "[13]", "result": 8.50, "unit": "mmHg"}, {"measurement": "Change in intraocular pressure", "setting": "[13]", "result": 2.47, "unit": "mmHg"}, {"measurement": "Average intraocular pressure in both eyes", "setting": "[14]", "result": 7.72, "unit": "mmHg"}, {"measurement": "Change in intraocular pressure", "setting": "[14]", "result": 2.59, "unit": "mmHg"}, {"measurement": "Average intraocular pressure in both eyes", "setting": "[15]", "result": 9.00, "unit": "mmHg"}, {"measurement": "Change in intraocular pressure", "setting": "[15]", "result": 1.97, "unit": "mmHg"}, {"measurement": "Average intraocular pressure in both eyes", "setting": "[16]", "result": 9.67, "unit": "mmHg"}, {"measurement": "Change in intraocular pressure", "setting": "[16]", "result": 1.64, "unit": "mmHg"}, {"measurement": "Average intraocular pressure in both eyes", "setting": "[17]", "result": 10.56, "unit": "mmHg"}, {"measurement": "Change in intraocular pressure", "setting": "[17]", "result": 1.38, "unit": "mmHg"}, {"measurement": "Average intraocular pressure in both eyes", "setting": "[18]", "result": 10.28, "unit": "mmHg"}, {"measurement": "Change in intraocular pressure", "setting": "[18]", "result": 2.69, "unit": "mmHg"}, {"measurement": "Average intraocular pressure in both eyes", "setting": "[19]", "result": 12.81, "unit": "mmHg"}, {"measurement": "Change in intraocular pressure", "setting": "[19]", "result": 1.61, "unit": "mmHg"}, {"measurement": "Average intraocular pressure in both eyes", "setting": "[20]", "result": 10.83, "unit": "mmHg"}, {"measurement": "Change in intraocular pressure", "setting": "[20]", "result": "−0.94", "unit": "mmHg"}]}]}
